Data on three compounds can be found in ChEMBL document CHEMBL6109039, “Designed and synthesized novel tripeptides targeting diabetes and its related pathologies” (Eur J Med Chem, 2025).

The subject of series [1] is Mus musculus. Description: Antidiabetic activity in STZ induced male Balb/c mouse model assessed as amelioration of tubular necrosis at 10 mg/kg, po treated for 21 days. In kind it is functional, organism-based. As to conditions: time 21.0 day.
The test system of series [2] is Mus musculus. Kind of series: Antidiabetic activity in STZ induced male Balb/c mouse model assessed as amelioration of tubular degeneration at 10 mg/kg, po treated for 21 days. The format is functional, organism-based. The following applies: time 21.0 day.
Series [3] deals with Mus musculus. Description: Antidiabetic activity in STZ induced male Balb/c mouse model assessed as amelioration of endocytic vacuole content at 10 mg/kg, po treated for 21 days. In kind it is functional, organism-based. As to conditions: time 21.0 day.
Series [4] relates to Mus musculus. Description: Antidiabetic activity in STZ induced male Balb/c mouse model assessed as amelioration of glomerular shrinkage at 10 mg/kg, po treated for 21 days. The format is functional, organism-based. As to conditions: time 21.0 day.
Series [5] deals with Mus musculus. Description: Antidiabetic activity in STZ induced male Balb/c mouse model assessed as amelioration of abnormal nephron cell morphology at 10 mg/kg, po treated for 21 days. The following applies: time 21.0 day. The format is functional, organism-based.
The subject of series [6] is Mus musculus. Kind of series: Antidiabetic activity in STZ induced male Balb/c mouse model assessed as amelioration of glomerular necrosis at 10 mg/kg, po treated for 21 days. The format is functional, organism-based. As to conditions: time 21.0 day.
Series [7] has as its system Mus musculus. Kind of series: Antidiabetic activity in STZ induced male Balb/c mouse model assessed as appearance of tubule epithelium at 63.81 ug/kg, ip treated for 21 days. In kind it is functional, organism-based. The following applies: dose 63.81 µg/kg, time 21.0 day.
The test system of series [8] is Mus musculus. Description: Antidiabetic activity in STZ induced male Balb/c mouse model assessed as ordered nephron cells with glomeruli at 63.81 ug/kg, ip treated for 21 days. As to conditions: dose 63.81 µg/kg, time 21.0 day. The format is functional, organism-based.
Series [9] relates to Mus musculus. Description: Antidiabetic activity in STZ induced male Balb/c mouse model assessed as reduction in glomerulus diameter at 63.81 ug/kg, ip treated for 21 days. In kind it is functional, organism-based. As to conditions: dose 63.81 µg/kg, time 21.0 day.
The test system of series [10] is Mus musculus. Description: Antidiabetic activity in STZ induced male Balb/c mouse model assessed as reduction in bowman's space at 63.81 ug/kg, ip treated for 21 days. As to conditions: dose 63.81 µg/kg, time 21.0 day. The format is functional, organism-based.
Series [11] deals with T1, Pancreatic alpha-amylase (Sus scrofa) (UniProt P00690).
T1 sequence (whole entry): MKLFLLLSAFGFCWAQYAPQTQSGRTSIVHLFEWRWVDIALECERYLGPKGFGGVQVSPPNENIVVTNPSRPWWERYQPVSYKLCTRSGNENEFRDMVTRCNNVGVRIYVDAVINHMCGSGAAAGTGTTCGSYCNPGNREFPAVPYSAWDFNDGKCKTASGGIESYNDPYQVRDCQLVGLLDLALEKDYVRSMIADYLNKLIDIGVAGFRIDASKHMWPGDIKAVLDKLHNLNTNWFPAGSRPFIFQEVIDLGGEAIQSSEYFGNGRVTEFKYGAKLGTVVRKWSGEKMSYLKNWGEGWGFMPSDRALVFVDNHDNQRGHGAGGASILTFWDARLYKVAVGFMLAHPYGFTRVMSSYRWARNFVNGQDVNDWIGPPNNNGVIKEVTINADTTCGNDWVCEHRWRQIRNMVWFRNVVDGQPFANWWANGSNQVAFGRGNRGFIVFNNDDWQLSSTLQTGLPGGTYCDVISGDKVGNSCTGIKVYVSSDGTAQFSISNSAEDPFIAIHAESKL
Kind of series: Mixed type inhibition of porcine pancreatic Alpha-amylase using starch as substrate pre-incubated for 20 mins followed by substrate addition and measured after 15 mins by DNS reagent based absorbance assay. The following applies: time 35.0 min.

In series [12] the test system is N=C(N)NCCC[C@H](N)C(=O)N[C@@H](Cc1c[nH]c2ccccc12)C(=O)N[C@@H](Cc1c[nH]c2ccccc12)C(=O)O. Description: Competitive inhibition of Alpha-glucosidase (unknown origin) using p-nitrophenyl-alpha-D-glucopyranoside as substrate assessed as Km pre-incubated for 10 mins followed by substrate addition and measured after 5 mins by Lineweaver-Burk plot analysis (reference value: 1.785 mM). In kind it is protein assay. As to conditions: Homo sapiens; time 15.0 min.

Series [13] shares this test system. Description: Competitive inhibition of Alpha-glucosidase (unknown origin) using p-nitrophenyl-alpha-D-glucopyranoside as substrate assessed as maximum velocity pre-incubated for 10 mins followed by substrate addition and measured after 5 mins by Lineweaver-Burk plot analysis (reference value: 0.802). The format is protein assay. As to conditions: Homo sapiens; time 15.0 min.

Active and inactive are the calls of the source. The calls are words filed in the database; no cut-off is given here. Residues, ends and D or L forms follow the SMILES beside them.

On to `CCC1=C(C)CN(C(=O)NCCc2ccc(S(=O)(=O)NC(=O)N[C@H]3CC[C@H](C)CC3)cc2)C1=O`, for which the outcome in [1], in series [2], in [3], in series [4], in [5] and in series [6] was Active.

Turning to `N=C(N)NCCC[C@H](N)C(=O)N[C@@H](Cc1c[nH]c2ccccc12)C(=O)N[C@@H](Cc1c[nH]c2ccccc12)C(=O)O` (H-Arg-Trp-Trp-OH), the outcome in [7], in series [8], in series [9] and in [10] was Active. In series [11], the inhibition result is “Active”.

“Alpha glucosidase (Homo sapiens) (from UniProt O43451+P10253+P14410+Q2M2H8)”: in series [12], the Km – broadly, the substrate concentration at which the rate is half of its maximum – is 1370 µM. For the same compound, the Vmax in series [13] was 0.7.
